According to US20230355801A1, “IMMUNOTHERAPY OF SKIN CANCER USING MPLA-LOADED HPG NANOPARTICLES” (Yale University, priority 2022, published 2023):

Tested on: dendritic cells in tumor draining lymph nodes
Assay: Maturation of dendritic cells in tumor draining lymph nodes of mice (Example 5)
Type: in vivo, mouse
Conditions: 24 hour after intratumoral injection, 10 μg MPLA
Description: Immunocompetent mice were injected with Yale University Mouse Melanoma Exposed to Radiation 1.7 (YUMMER1.7) cells for in vivo modeling of immunogenic, cutaneous melanoma. 300,000 cells of YUMMER 1.7 melanoma cells in 50 μL of sterile PBS were intradermally injected into the left flank of syngeneic C57Bl/6 mice.
The mice were watched for tumor growth for eight days until the mice were randomly divided into groups (n=10) based on tumor sizes between 40-90 mm^3. The mice received vehicle (10 μl distilled water), free MPLA (10 μg), NNP-MPLA (10 μg of active MPLA), and BNP-MPLA (10 μg of active MPLA) intratumorally. The mice were sacrificed either at 24 hours or 72 hours after the single intratumoral injection. The tumor draining lymph nodes, both axillary and inguinal, were collected from each mouse. A petri dish was used to collect the lymph nodes, and the frosted ends of microscope slides were used to gently release immune cells from the lymph nodes into fresh CRPMI and placed on ice until resuspension. […]
After lymph node single cell collection, the cells were rinsed with sterile PBS and plated into a 96 round-bottom well plate at a concentration density of 1-2×10^6 cells per well then rinsed again with PBS. […] The stained cells were then detected by flow cytometer (Cytoflex, Beckman Coulter). […]

monophosphoryl lipid A [free MPLA]
dendritic cell maturation (CD80+CD86+ in CD11c+ cells) in TDLN: significant increase
